Measurements taken from the METLIN SMRT retention time set (Domingo-Almenara et al. 2019).

Test: gradient 5% acetonitrile 3 min, to 50% in 2 min, to 85% in 15 min, held 3 min, 100 µL/min
Conditions: column: Zorbax Extend-C18 2.1 x 50 mm; eluents: water / acetonitrile, 0.1% formic acid
Summary of the method: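 Over 3 months, pure standards in mixtures of ~100 molecules were run by HPLC coupled to a quadrupole time-of-flight mass spectrometer in positive and negative ionization mode. The column was a Zorbax Extend-C18 (2.1 × 50 mm, 1.8 μm) at 100 μL/min, eluted with water and acetonitrile each holding 0.1% formic acid, with 40 μL dead and 900 μL dwell volumes. Retention time was determined from adduct peaks chosen by software and checked manually.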

| RP-LC retention time [s] | Structure (SMILES) |
| --- | --- |
| 785 | O=C(NCC(=O)N1CCN(c2ccccc2Cl)CC1)c1c[nH]c2ccccc12 |
| 906 | Cc1cccc(S(=O)(=O)N2C[C@@H](F)C[C@H]2C(=O)N2CCc3ccccc3C2)c1 |
| 632 | CCn1cc(CC(=O)NCc2ccc(N3CCOCC3)cc2)c2cccnc21 |
| 824 | COc1ccc(-c2ccc(=O)n(CCCNC(=O)c3ccc(C(F)(F)F)cc3)n2)cc1 |
| 712 | Cc1cc(NC(=O)C2CCN(C(=O)c3cc(-c4ccco4)on3)CC2)no1 |
| 626 | Cc1ccc(N2CCN(C(=O)c3cn4c(n3)CCCC4)CC2)cc1 |
| 702 | O=C(NCc1ccccc1)Nc1cccn2ncnc12 |
| 620 | CCc1nccn1Cc1nc(-c2ccc(OC)cc2)no1 |
| 1050 | CCN1C(=O)COc2ccc(-c3csc(NC(=O)C4CCCCC4)n3)cc21 |
| 1040 | Cc1ccc(CNC(=O)Cn2nc(C)c3nn(-c4ccc(Cl)cc4)c(-n4cccc4)c3c2=O)o1 |
| 735 | C=CCc1cc(OC)c(O)c(C(=O)NCCO)c1 |
| 1360 | Cc1cccc(OCc2nc(C)c(C(=O)Nc3nc(-c4ccc(Cl)cc4)cs3)s2)c1 |
| 668 | O=C(NCc1c(-c2ccc(Cl)cc2)nc2n1CCS2)c1ccco1 |
| 1050 | COc1ccc(/C=C/c2nc(-c3cccc(-c4ccnn4C)c3)no2)cc1OC |
| 589 | COc1ccc(CC(=O)N2CCc3nc(CNC(=O)C4CCC4)n(C)c3C2)cc1 |
| 875 | CCOC(=O)N1CCN(c2ncc(S(=O)(=O)c3ccc(C)cc3)c(N)n2)CC1 |
| 1200 | Cc1ccc(C(=O)N2CCCC2c2nc(-c3cccc(Cl)c3)no2)c(C)c1 (centres undefined) |
| 738 | Cc1ccc(-c2ncccc2CNS(=O)(=O)c2ccc(F)c(F)c2)cc1 |
| 606 | CN1CCC(NC(=O)c2ccc(-c3nnc4ccc(NC(=O)C5CCC5)cn34)cc2)CC1 |
| 1020 | COC1CCC12CCN(S(=O)(=O)c1ccc(C)cc1)CC2 (centres undefined) |
| 1140 | CC(C)c1nc(-n2cccc2)sc1C(=O)NCc1ccccc1 |
| 569 | CCOc1ncccc1CNC(=O)c1ccc2nc[nH]c2c1 |
| 941 | COc1ccc(-c2noc(C3CCCN3C(=O)Nc3cc(OC)cc(OC)c3)n2)cc1 (centres undefined) |

| RP-LC retention time [s] | Structure (SMILES) |
| --- | --- |
| 939 | COc1ccc(-c2csc3c(=O)n(CC(=O)OC(C)C)cnc23)cc1 |
| 741 | Cc1ccc(-c2nc3cccc(C)n3c2Nc2ccccc2)cc1 |
| 985 | Cc1ccc(Nc2c(-c3c(F)cccc3Cl)nc3ccc(Br)cn23)cc1 |
| 824 | Cc1ccc(S(=O)(=O)N2CCC(c3nc(C(=O)N4CCOCC4)c(C)o3)CC2)cc1 |
| 946 | CCc1ccc(NC(=O)Cc2nc(C)c(C(=O)NCc3ccc(F)cc3)s2)cc1 |
| 664 | CC1=C(c2ccccc2)S(=O)(=O)N=C1N1CCCN(C(=O)c2cccnc2)CC1 |
| 697 | Cc1[nH]nc(-c2ccc(S(=O)(=O)NCCc3ccc(S(N)(=O)=O)cc3)o2)c1C |
| 594 | CCNC(=O)c1cc(C)nc2c(C)cc(C)cc12 |
| 1210 | CCc1ccccc1NS(=O)(=O)c1cc(-c2cc(C(F)(F)F)on2)sc1C |
| 700 | NC(=O)C1CCN(C(=O)c2ccc(CN3C(=O)CCn4nc(-c5cccc(Cl)c5)cc43)cc2)CC1 |
| 661 | COc1ccc(N2CCN(C(=O)c3c(C)sc4ccn(C)c(=O)c34)CC2)cc1 |
| 788 | COCC(=O)N(C1CCOCC1)C1CCN(S(=O)(=O)c2ccc(F)c(F)c2)CC1 |
| 989 | CCCCC(=O)NC1(C(F)(F)F)C(=O)N(Cc2ccccc2)C(C)=C1C(=O)OC (centres undefined) |
| 1200 | CC(=O)[C@@]1(O)[C@H](C)C[C@H]2[C@@H]3C=C(C)C4=Cc5c(cnn5-c5ccccc5)C[C@]4(C)[C@H]3[C@@H](O)C[C@@]21C |
| 839 | O=C(NCCc1csc(-c2cccs2)n1)C1CCN(C(=O)c2cccc(Cl)c2)CC1 |
| 708 | COCc1c(C(=O)O)nnn1-c1cc(C)ccc1F |
| 637 | CCc1nc2ccc(-c3noc(CNC(=O)c4ccccc4)n3)cc2n1CC |
| 606 | Cc1ccc(CNC(=O)C2(C)Cn3nc(C(=O)NCCN4CCCCC4)cc3C(=O)N2C)cc1 (centres undefined) |
| 580 | CC(=O)N1CCC2(CC1)OC(=O)C(C)=C2C(=O)NCCCN(Cc1ccccc1)C(C)C |
| 857 | CCOC(=O)c1c(S(=O)(=O)N2CCC(C(=O)Nc3ccc(OC)cc3)CC2)c(C)n(CC)c1C |
| 618 | CCOC(=O)c1c(C)[nH]c(CCC(=O)NCCN2CCCCC2C)c1C (centres undefined) |
| 805 | COc1ccccc1CNc1nccc(-n2ccc(C)n2)n1 |
| 995 | CCCc1noc(-c2cccnc2N2CCCN(C(=O)Nc3cc(C)ccc3C)CC2)n1 |

| RP-LC retention time [s] | Structure (SMILES) |
| --- | --- |
| 724 | COc1cc(NC(=O)CSc2nnnn2C)c2ncccc2c1 |
| 944 | CCOc1ccc(NC(=O)N2CCCN(c3ncccc3-c3nc(C4CC4)no3)CC2)cc1 |
| 839 | CCC(C)(C)C(=O)N1CCCC1Cc1noc(-c2cccnc2)n1 (centres undefined) |
| 935 | CCOc1ccc(NC(=O)c2cnc(-c3ccc(F)cc3)nc2-c2ccncc2)cc1 |
| 662 | COCc1nc(C2CCN(C(=O)Nc3ccc4c(c3)OCCO4)C2)no1 (centres undefined) |
| 1150 | CCCCn1nnc(NCc2ccc(-c3cccc(Cl)c3)o2)n1 |
| 676 | Cc1cc(NS(=O)(=O)c2c(C)noc2C)n(C2CCS(=O)(=O)C2)n1 (centres undefined) |
| 886 | Cc1cccc(Sc2nccnc2N2CCC(C(=O)NC3CC3)CC2)c1 |
| 1330 | CCCCC(=O)N(CC)c1nc(-c2ccccc2)cs1 |
| 1050 | CCc1ccc(NC(=O)Cn2c(=O)cc(-c3nc(C4CC4)no3)c3ccccc32)cc1 |
| 1060 | CCOC(=O)c1ccccc1NC(=O)Cn1c(=O)n(-c2ccc(C)cc2)c(=O)c2c1cc(C)n2C |
| 764 | Cc1cc(C)c(C(=O)N2CCC(CC(=O)NCCC(C)C)CC2)[nH]1 |
| 826 | CCOC(=O)c1c(NCCc2cccs2)c2cc(Cl)ccc2[nH]c1=O |
| 664 | O=C(NCCOc1ccc2nnc(-c3ccccc3Cl)n2n1)c1cccs1 |
| 898 | CCc1ccc(CNC(=O)CC2CCN(C(=O)c3[nH]c(C)c(C)c3C)CC2)cc1 |
| 651 | Cc1c(-c2nnc(C(=O)NCCN(C)C)o2)oc2c(C)cccc12 |
| 742 | COc1ccc(F)cc1S(=O)(=O)NCCOc1ccc(-c2ccco2)nn1 |
| 774 | CC(=O)N(C)c1ccc(NC(=O)c2c(-c3ccccc3Cl)noc2C)cc1 |
| 804 | Cc1ccc(Nc2c(-c3cccc(Cl)c3)nc3ccc(C)cn23)cc1 |
| 734 | CN(CC1CCOC1)C(=O)Cc1cccc(Cl)c1 (centres undefined) |
| 613 | CCn1cc(CCN2CCN(C(=O)C3CCCCC3)CC2)c2cccnc21 |
| 755 | Cc1ccccc1CNC(=O)C1c2ccccc2CC(=O)N1C (centres undefined) |
| 840 | COc1ccc(-c2nnc(-c3ccccc3)o2)cc1S(=O)(=O)N(C)C |

| RP-LC retention time [s] | Structure (SMILES) |
| --- | --- |
| 898 | COC(=O)c1ccccc1NC(=O)Cn1c(=O)c(CCC(=O)NC2CCCC2)nc2ccccc21 |
| 573 | CS(=O)(=O)N1CC(n2cc(C(=O)N3CCOCC3)nn2)C1 |
| 900 | Cc1cc(CNC(=O)C2(c3ccc(F)cc3)CC2)c(C)o1 |
| 736 | O=C(Cn1c(=O)c(CCC(=O)NC2CC2)nc2ccccc21)NCc1ccccc1Br |
| 597 | CCCNC(=O)N1CCN(Cc2nc3cccnc3n2-c2ccccc2)CC1 |
| 828 | COc1ccc(-c2ccc3nc(N4CCC(C(=O)N(C)C)CC4)sc3n2)cc1 |
| 1050 | CCOC(=O)c1ccc(NC(=O)c2cnc(-c3ccc(C)cc3)nc2-c2ccncc2)cc1 |
| 595 | CN(C)C(CNS(=O)(=O)c1ccc(Br)s1)c1cn(C)c2ccccc12 (centres undefined) |
| 858 | CC1Oc2ccc(S(=O)(=O)N3CCC(C(=O)N(C)C4CCCCC4)CC3)cc2NC1=O (centres undefined) |
| 982 | Cc1ccc(Nc2c(-c3ccccc3)nc3cnccn23)c(C)c1 |
| 590 | CC1CCCN(c2nc(C(=O)NC3CC3)cs2)C1 (centres undefined) |
| 674 | CCN(CC)c1ncc2c(n1)CCC(C(=O)Nc1ccc(OC)cc1C)C2 (centres undefined) |
| 1060 | Cc1ccc(-c2noc(Cn3nc(-c4ccc5c(c4)OCO5)ccc3=O)n2)cc1C |
| 630 | O=C1CC(NS(=O)(=O)c2ccc(Br)s2)CN1 (centres undefined) |
| 711 | COc1cc(C)nc(-n2nc(C)cc2OC)n1 |
| 791 | CCC(=O)Nc1ccc(-n2cnc(C(=O)NCc3ccc(C)c(C)c3)c2)nc1 |
| 1040 | O=C(Cn1cnc2c(sc3nc(-c4ccccc4)ccc32)c1=O)Nc1cc(F)ccc1F |
| 994 | O=C(NCc1ccccc1F)c1cc(N2CCCC2)n2nccc2n1 |
| 983 | Cc1ccc(NC(=O)CC(C)S(=O)(=O)c2ccc3c(c2)CCN3C(=O)C2CC2)cc1N(C)C (centres undefined) |
| 1180 | CC(C)Oc1ccc(-c2noc(CN3N=NC4C(=O)N(c5ccc6c(c5)CCC6)C(=O)C43)n2)cc1 (centres undefined) |
